Consider 29 compounds from article PMC9775191, “A Subset Screen of the Compounds Australia Scaffold Library Identifies 7-Acylaminodibenzoxazepinones as Potent and Selective Hits for Anti-Giardia Drug Discovery” (Biomedicines, 2022).

This test concerns G. duodenalis BRIS/91/HEPU/1279. Kind of test: Primary Giardia screen at 10 µM (live-cell imaging, automated counting). The class given is cell-based, Giardia duodenalis. Particulars: 48 h, first singlicate assay. An outline of the steps: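 One concentration, 10 μM, is screened per compound in singlicate under microaerophilic gas (3% O2, 5% CO2, N2). Inhibition comes from automated image-based counts at 24 and 48 h, relative to 0.2% DMSO controls.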
With `COc1cccc(N2CCN(C(=O)C3CCN(c4nc(NC(C)=O)ns4)CC3)CC2)c1` [SN00800160], the “% Inhibition n=1 48h” value came to 16.2%.

Take `CC(=O)Nc1nsc(N2CCCC(C(=O)NCc3ccccc3Cl)C2)n1` (centres unmarked) [SN00800180]: the “% Inhibition n=1 48h” value is recorded as 5.9%.

For the compound `CCN1c2cc(Cl)ccc2C(=O)NC12CCN(C(=O)Nc1ccc3c(c1)OCO3)CC2` [SN00800192], the “% Inhibition n=1 48h” value is on record as 8.9%.

Take `CCc1nn(CC)c(=O)c2cc(S(=O)(=O)N3CCOCC3)cn12` [SN00800228]: the “% Inhibition n=1 48h” value stood at 11.8%.

For `CN(C)C(=O)c1[nH]nc2c1CN(C(=O)CCc1ccccc1)CC2` [SN00800269], the “% Inhibition n=1 48h” value worked out at 0.0%.

With `O=C(c1cccc(N2CCNC(c3ccccc3)C2)n1)N1CCN(c2ccccc2)CC1` (centres unmarked) [SN00800322], the “% Inhibition n=1 48h” value stood at 13.5%.

As for `O=C(c1ccccc1)N1CCN(c2cc(-c3ccc(Cl)cc3)n[nH]2)CC1` [SN00800335], the “% Inhibition n=1 48h” value was 14.4%.

Consider `COc1ccc(-c2cc(N3CCN(C(=O)Cc4ccc(F)cc4)CC3)[nH]n2)cc1` [SN00800353], for which the “% Inhibition n=1 48h” value was 0.0%.

Regarding `COc1ccc(-c2cc(N3CCC(NC(=O)Cc4ccccc4)CC3)[nH]n2)cc1` [SN00800379], the “% Inhibition n=1 48h” value came to 0.0%.

For the compound `O=C(NC1CCN(c2cc(-c3cccs3)n[nH]2)C1)c1ccc2[nH]cnc2c1` (centres unmarked) [SN00800411], the “% Inhibition n=1 48h” value stood at 29.6%.

For `CC1CCN(c2nc(C(=O)NCCc3ccncc3)nc3c2cnn3C)CC1` [SN00800416], the “% Inhibition n=1 48h” value was determined as 9.4%.

Take `CCOC(=O)c1ccc(NC(=O)c2nc(C)n(C3CCN(C(C)=O)CC3)c2C)cc1` [SN00800452]: the “% Inhibition n=1 48h” value turned out to be 13.2%.

Regarding `O=C1CC(C(=O)N2CCN(c3ccccc3)CC2)CN1CCc1ccccc1` (centres unmarked) [SN00800474], the “% Inhibition n=1 48h” value is on record as 6.2%.

For `CCc1noc(C2(NC(=O)c3cc(-c4ccccc4)n[nH]3)CCCCC2)n1` [SN00800487], the “% Inhibition n=1 48h” value came out at 0.0%.

For the compound `Cc1ccc(CNC(=O)N2CCCN(c3ncccc3-c3nc(C4CC4)no3)CC2)cc1` [SN00800535], the “% Inhibition n=1 48h” value was found to be 34.3%.

Turning to `Cc1nnc(-c2nnc(NCc3ccccc3)c3ccccc23)o1` [SN00800540], the “% Inhibition n=1 48h” value is 1.6%.

In the case of `CCc1nnc(-c2nnc(NCc3ccc4c(c3)OCO4)c3ccccc23)o1` [SN00800558], the “% Inhibition n=1 48h” value worked out at 0.0%.

Regarding `CCn1ccc(C(=O)Nc2ccc3c(c2)Sc2ncccc2C(=O)N3C)n1` [SN00800580], the “% Inhibition n=1 48h” value is 19.0%.

Turning to `Cc1cc(NS(=O)(=O)c2cc(-c3[nH]ncc3C(=O)N3CCCC3)oc2C)ccc1F` [SN00800668], the “% Inhibition n=1 48h” value turned out to be 0.0%.

In the case of `CCOC(=O)CCNC(=O)N1CCc2c(nc3cc(-c4ccccc4Cl)[nH]n3c2=O)C1` [SN00800844], the “% Inhibition n=1 48h” value was 13.6%.

`COc1ccc(-c2cc3nc4c(c(=O)n3[nH]2)CNCC4)cc1` [SN00800876]: the “% Inhibition n=1 48h” value is listed as 0.0%.

Regarding `Cc1ccc(CNC(=O)N2CCN(C3=CC4=NCC(C)N4C=N3)CC2)cc1` (centres unmarked) [SN00800883], the “% Inhibition n=1 48h” value came out at 11.9%.

Take `CCC1CN2C=NC(N3CCN(C(=O)CCc4ccccc4OC)CC3)=CC2=N1` (centres unmarked) [SN00800900]: the “% Inhibition n=1 48h” value is 25.4%.

For `O=C(N[C@H]1C[C@@H]2C[C@H]1N(C(=O)Nc1ccc3c(c1)CCC3)C2)c1ccccc1` [SN00800945], the “% Inhibition n=1 48h” value came to 6.6%.

In the case of `O=C(N[C@H]1C[C@@H]2C[C@H]1CN2S(=O)(=O)c1ccc2c(c1)CCCC2)c1cccnc1` [SN00800980], the “% Inhibition n=1 48h” value was found to be 0.6%.

As for `O=C(Cc1ccccc1F)N1CCC(Nc2cccnc2)C1` (centres unmarked) [SN00801060], the “% Inhibition n=1 48h” value is recorded as 18.5%.

As for `CCn1nccc1C(=O)NC1CCN(c2nccnc2OC)C1` (centres unmarked) [SN00801093], the “% Inhibition n=1 48h” value is listed as 0.0%.

`O=C(c1cccc2[nH]ccc12)N1CCC(c2nc(-c3ccccc3)no2)C1` (centres unmarked) [SN00801115]: the “% Inhibition n=1 48h” value was determined as 23.0%.

For `CCn1cc(CN2CCC(OCc3nc(C4CC4)no3)CC2)cn1` [SN00801138], the “% Inhibition n=1 48h” value amounted to 0.0%.
